These results are taken from patent publication US20230002352A1, “SULFONAMIDE DERIVATIVES AS CTPS1 INHIBITORS” (Step Pharma S.A.S., priority 2019, published 2023).

For orientation: IC50 means the point on the concentration scale where inhibition reaches its midpoint.

A value given as a limit tells only on which side of the number the result lay.

The target of one assay is T1, human CTPS1 (Homo sapiens, UniProt P17812).
T1 construct: purchased Proteros biostructures GmbH
T1 sequence (P17812 1-591): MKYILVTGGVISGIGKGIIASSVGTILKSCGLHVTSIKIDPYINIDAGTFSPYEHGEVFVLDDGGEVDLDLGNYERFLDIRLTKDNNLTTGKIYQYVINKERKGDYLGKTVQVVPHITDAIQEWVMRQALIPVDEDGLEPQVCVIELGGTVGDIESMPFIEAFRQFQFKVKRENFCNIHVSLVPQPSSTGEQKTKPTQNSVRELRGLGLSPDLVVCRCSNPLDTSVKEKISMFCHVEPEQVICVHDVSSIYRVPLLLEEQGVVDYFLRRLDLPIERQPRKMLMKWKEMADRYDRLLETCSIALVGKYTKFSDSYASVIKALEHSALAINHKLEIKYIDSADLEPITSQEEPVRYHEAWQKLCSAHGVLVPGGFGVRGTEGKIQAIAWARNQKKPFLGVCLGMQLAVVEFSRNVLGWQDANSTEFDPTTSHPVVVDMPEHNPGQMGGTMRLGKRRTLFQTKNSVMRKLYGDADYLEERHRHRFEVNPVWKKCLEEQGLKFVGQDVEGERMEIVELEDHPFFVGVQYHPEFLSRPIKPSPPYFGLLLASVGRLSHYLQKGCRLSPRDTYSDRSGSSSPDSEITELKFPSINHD
Briefly: Human CTPS1 enzyme inhibition (ADP-Glo Max assay). The conditions noted are these: Table 23; ADP-Glo Max assay; read-out: CTPS1 (Human CTPS1 Enzyme Inhibition data grouped by potency range, IC50). Type of assay: biochemical. As to the method:
Biological Example 1—Human CTPS1 Enzyme Inhibition
The enzyme inhibitory activities of compounds invented against the target of interest were determined using the ADP-Glo™ Max assay (Promega, UK). Assays for human CTPS1 were performed in 1× assay buffer containing 50 mM Tris, 10 mM MgCl2, 0.01% Tween-20, pH to 8.0 accordingly. Finally, immediately before use, L-cysteine was added to the 1× assay buffer to a final concentration of 2 mM. All reagents are from Sigma-Aldrich unless specified otherwise. Human full length active C-terminal FLAG-Hiss-tag CTPS1 (UniProtKB-P17812, CTPS[1-591]-[…]) was obtained from Proteros biostructures GmbH.
3× human CTPS1 protein was prepared in 1× assay buffer to the final working protein concentration required for the reaction. A 2 uL volume per well of 3× human CTPS1 protein was mixed with 2 uL per well of 3× test compound (compound prepared in 1× assay buffer to an appropriate final 3× compound concentration respective to the concentration response curve designed for the compounds under test) for 10 minutes at 25° C. The enzymatic reaction was then initiated by addition of a 2 uL per well volume of a pre-mixed substrate mix (UltraPure ATP from ADP-Glo™ Max kit (0.31 mM), GTP (0.034 mM), UTP (0.48 mM) and L-glutamine (0.186 mM)) and the mixture was incubated for an appropriate amount of time within the determined linear phase of the reaction at 25° C. under sealed plate conditions with constant agitation at 500 revolutions per minute (rpm). ADP-Glo™ Max reagent was added for 60 minutes (6 μL per well) and subsequently ADP-Glo™ Max development reagent was added for 60 minutes (12 uL per well) prior to signal detection in a microplate reader (EnVision® Multilabel Reader, Perkin Elmer). Following each reagent addition over the course of the assay, assay plates were pulse centrifuged for 30 seconds at 500 rpm.
In all cases, the enzyme converts ATP to ADP and the ADP-Glo™ Max reagent subsequently depletes any remaining endogenous ATP in the reaction system. The ADP-Glo™ Max detection reagent converts the ADP that has been enzymatically produced back into ATP and using ATP as a substrate together with luciferin for the enzyme luciferase, light is generated which produces a detectable luminescence. […] The percentage inhibition produced by each concentration of compound was calculated using the equation shown below: […]
Percentage inhibition was then plotted against compound concentration, and the 50% inhibitory concentration (IC50) was determined from the resultant concentration-response curve.
As to `CCOc1cncc(-c2ccc(NC(=O)C3(c4ccnc(NS(C)(=O)=O)n4)CCNCC3)nc2)n1` [Example P138], the IC50 lay within 0.1 to 1 µM.

With `O=C(Cc1ccnc(NS(=O)(=O)C2CC2)n1)Nc1ccc(-c2cncc(C(F)(F)F)n2)cc1F` [Example P11], the IC50 is ≤ 0.1 µM.

On to `CCOc1cncc(-c2ccc(NC(=O)C(F)(CC)c3ccnc(NS(C)(=O)=O)n3)nc2)n1` (single isomer, unassigned) [Example P165], for which the IC50 was ≤ 0.1 µM. The same measure, in the same setting: in the case of `CCOc1cncc(-c2ccc(NC(=O)C(C)(C)c3ccnc(NS(C)(=O)=O)n3)cc2)n1` [Example P81] it was ≤ 0.1 µM.

Turning to `CC(C)(C(=O)Nc1ccc(-c2cncc(C(F)(F)F)n2)cc1)c1ccnc(NS(C)(=O)=O)n1` [Example P80], the IC50 lay within 0.1 to 1 µM. As to `CC(C)(C(=O)Nc1ccc(-c2cnccn2)cc1)c1ccnc(NS(=O)(=O)C2CC2)n1` [Example P71], the IC50 lay within 1 to 10 µM. The same measure, in the same setting: in the case of `CCOc1cncc(-c2ccc(NC(=O)C3(c4ccnc(NS(=O)(=O)C5CC5)n4)CCNCC3)nc2)n1` [Example P140] it was 0.1 to 1 µM. On the same count and under the same terms, next, `O=C(Cc1cccc(NS(=O)(=O)C2CC2)n1)Nc1ccc(-c2cncc(C(F)(F)F)n2)cc1` [Example P172]: 0.1 to 1 µM; `COc1cncc(-c2ccc(NC(=O)Cc3cccc(NS(=O)(=O)C4CC4)n3)cc2)n1` [Example P173]: ≤ 0.1 µM. Still for that read-out and setting: in the case of `CCOc1cncc(-c2ccc(NC(=O)C3(c4ccnc(NS(=O)(=O)C5CC5)n4)CN(C(=O)OC(C)(C)C)C3)nc2)n1` [Example P141] it was 0.1 to 1 µM; in that of `CCOc1cncc(-c2ccc(NC(=O)C(C)(C)c3cc(C)nc(NS(=O)(=O)C4CC4)n3)cc2)n1` [Example P134], 0.1 to 1 µM; in that of `CCOc1cncc(-c2cc(F)c(NC(=O)C(C)(C)c3ccnc(NS(=O)(=O)C4CC4)n3)c(F)c2)n1` [Example P41], ≤ 0.1 µM. Regarding `O=C(Cc1cccc(NS(=O)(=O)C2CC2)n1)Nc1ccc(-c2cncc(F)c2)cc1` [Example P169], the IC50 was in the range of 0.1 to 1 µM. Still for that read-out and setting: next, `CCOc1cncc(-c2ccc(NC(=O)C(C)(C)c3ccnc(NS(=O)(=O)C4CC4)n3)c(OC(F)(F)F)c2)n1` [Example P47]: ≤ 0.1 µM; `O=C(Cc1ccnc(NS(=O)(=O)C2CC2)n1)Nc1ccc(-c2cncc(C(F)(F)F)n2)cc1` [Example P8, 2-(2-(Cyclopropanesulfonamido)pyrimidin-4-yl)-N-(4-(6-(trifluoromethyl)pyrazin-2-yl)phenyl)acetamide]: ≤ 0.1 µM; `CN(C)c1cncc(-c2ccc(NC(=O)C(C)(C)c3ccnc(NS(=O)(=O)C4CC4)n3)cc2)n1` [Example P133]: 1 to 10 µM. In the case of `CCC(C(=O)Nc1ccc(-c2cncc(OCC(F)(F)F)n2)cn1)c1ccnc(NS(=O)(=O)C2CC2)n1` (stereo not shown) [Example P157], the IC50 was ≤ 0.1 µM.

With `CCOc1cncc(-c2ccc(NC(=O)C(C)(C)c3ccnc(NS(=O)(=O)CC)n3)c(F)c2)n1` [Example P72], the IC50 was in the range of 0.1 to 1 µM. The same measure, in the same setting: in the case of `O=C(Cc1cccc(NS(=O)(=O)C2CC2)n1)Nc1ccc(-c2cncc(Cl)c2)cc1` [Example P167] it was 0.1 to 1 µM. The same measure, in the same setting: next, `CCOc1cncc(-c2ccc(NC(=O)C3(c4cccc(NS(=O)(=O)C5CC5)n4)CCOCC3)nc2)n1` [Example P186]: ≤ 0.1 µM; `CCOc1cncc(-c2ccc(NC(=O)C(C)(C)c3ccnc(NS(=O)(=O)C4CCC4)n3)c(C)c2)n1` [Example P24]: 0.1 to 1 µM; `CCS(=O)(=O)Nc1cncc(CC(=O)Nc2ccc(-c3cccnc3)cc2)n1` [Example P193]: 1 to 10 µM.

Consider `CCOc1cncc(-c2ccc(NC(=O)C(C)(C)c3ccnc(NS(=O)(=O)C4CCC4)n3)nc2)n1` [Example P22], for which the IC50 was in the range of 0.1 to 1 µM. Regarding `CC(C)(C(=O)Nc1ccc(-c2cncc(Cl)c2)cc1)c1cccc(NS(=O)(=O)C2CC2)n1` [Example P176], the IC50 lay within 1 to 10 µM.

Regarding `Cc1cncc(-c2ccc(NC(=O)C(C)(C)c3ccnc(NS(=O)(=O)C4CC4)n3)cc2)c1` [Example P54], the IC50 lay within 0.1 to 1 µM. Still for that read-out and setting: next, `CC(C)(C(=O)Nc1ccc(-c2cncc(F)c2)cc1)c1cccc(NS(=O)(=O)C2CC2)n1` [Example P177]: 1 to 10 µM; `CCOc1cncc(-c2cnc(NC(=O)C(C)(C)c3ccnc(NS(C)(=O)=O)n3)c(F)c2)n1` [Example P75]: 0.1 to 1 µM; `CCOc1cncc(-c2ccc(NC(=O)C3(c4ccnc(NS(=O)(=O)C5CC5)n4)CCOCC3)cc2)n1` [Example P137]: ≤ 0.1 µM. Still for that read-out and setting: next, `CC(C)(C(=O)Nc1ccc(-c2cccnc2)cn1)c1ccnc(NS(=O)(=O)C2CC2)n1` [Example P29]: 1 to 10 µM; `CCOc1cncc(-c2ccc(NC(=O)C(C)(C)c3cc(C(F)(F)F)nc(NS(=O)(=O)C4CC4)n3)c(F)c2)n1` [Example P130]: 0.1 to 1 µM; `CCOc1cncc(-c2ccc(NC(=O)C(C)(C)c3cccc(NS(=O)(=O)C4CC4)n3)cc2)n1` [Example P183]: 0.1 to 1 µM. In the case of `CC(C)Oc1cncc(-c2ccc(NC(=O)C(C)(C)c3ccnc(NS(C)(=O)=O)n3)c(F)c2)n1` [Example P78], the IC50 was in the range of 0.1 to 1 µM. For `CC(C)Oc1cncc(-c2ccc(NC(=O)C(C)(C)c3ccnc(NS(=O)(=O)C4CC4)n3)cc2)c1` [Example P58], the IC50 was 0.1 to 1 µM. Still for that read-out and setting: next, `COc1cncc(-c2ccc(NC(=O)C(C)(C)c3ccnc(NS(=O)(=O)C4CC4)n3)cc2)n1` [Example P3, 2-(2-(cyclopropanesulfonamido)pyrimidin-4-yl)-N-(4-(6-methoxypyrazin-2-yl)phenyl)-2-methylpropanamide]: ≤ 0.1 µM. The same measure, in the same setting: in the case of `O=C(Cc1cccc(NS(=O)(=O)C2CC2)n1)Nc1ccc(-c2cccnc2)cc1` [Example P171] it was 1 to 10 µM. On to `CCOc1cncc(-c2ccc(NC(=O)C(C)(C)c3cc(C)nc(NS(=O)(=O)C4CC4)n3)nc2)n1` [Example P123], for which the IC50 is 0.1 to 1 µM.

`CC(C)(C(=O)Nc1ccc(-c2cncc(C#N)c2)cc1)c1ccnc(NS(=O)(=O)C2CC2)n1` [Example P52]: the IC50 lay in the range of 0.1 to 1 µM. Still for that read-out and setting: next, `CC(C)(C(=O)Nc1ccc(-c2cncc(C(F)(F)F)c2)cc1)c1ccnc(NS(=O)(=O)C2CC2)n1` [Example P4, 2-(2-(Cyclopropanesulfonamido)pyrimidin-4-yl)-2-methyl-N-(4-(5-(trifluoromethyl)pyridin-3-yl)phenyl)propanamide]: 0.1 to 1 µM; `O=C(Cc1nc(NS(=O)(=O)C2CC2)ncc1F)Nc1ccc(-c2cccnc2)cc1` [Example P15]: 1 to 10 µM. As to `CCOc1cncc(-c2ccc(C(=O)NC3(c4ccnc(NS(=O)(=O)C5CC5)n4)CC3)c(F)c2)n1` [Example P209], the IC50 fell in the range of 0.1 to 1 µM. Take `CC(C)(C(=O)Nc1ccc(-c2cncc(C(F)(F)F)n2)cc1)c1cccc(NS(=O)(=O)C2CC2)n1` [Example P181]: the IC50 lay in the range of 1 to 10 µM. Still for that read-out and setting: in the case of `CC(C)Oc1cncc(-c2ccc(NC(=O)C(C)(C)c3ccnc(NS(=O)(=O)C4CC4)n3)c(F)c2)c1` [Example P35] it was 0.1 to 1 µM; in that of `COc1cncc(-c2ccc(NC(=O)C(C)(C)c3cccc(NS(=O)(=O)C4CC4)n3)cc2)n1` [Example P184], 0.1 to 1 µM.

Still in this assay, the particulars now being: Table 24; ADP-Glo Max assay; read-out: CTPS1 (Human CTPS1 Enzyme Inhibition data grouped by potency range, IC50).
Consider `CCOc1cncc(-c2ccc(NC(=O)C3(c4ccnc(NS(=O)(=O)C5CC5)n4)CCC(OC)CC3)nc2)n1` (stereo not shown) [Example P260], for which the IC50 is ≤ 0.1 µM.

Turning to `CCOc1cncc(-c2ccc(NCC3(c4ccnc(NS(=O)(=O)C5CC5)n4)CCOCC3)cc2)n1` [Example P256], the IC50 is 0.1 to 1 µM.

`CCOc1cncc(-c2ccc(CNC3(c4ccnc(NS(=O)(=O)C5CC5)n4)CC3)nc2)n1` [Example P254]: the IC50 was in the range of 0.1 to 1 µM.
